Article PMC4635352, “Preventive effect of oral goshajinkigan on chronic oxaliplatin-induced hypoesthesia in rats” (Scientific Reports, 2015)

How the values were obtained:
oxaliplatin-treated rats [1] = assay: acetone test for cold hyperalgesia in oxaliplatin-treated rats; type: in vivo, rat; conditions: oxaliplatin 4 mg/kg i.p. twice weekly; 4, 6 and 8 wks; vs naïve control
Description: (§1) To establish the oxaliplatin-induced chronic neuropathy rat model, oxaliplatin (4 mg/mL/kg) or its vehicle (5% glucose solution) was injected intraperitoneally twice weekly for 8 wks. Rats were orally administered GJG (0.3 or 1.0 g/10 mL/kg) or DW 5 times a week for 8 wks.
(§2) Cold hyperalgesia induced by oxaliplatin was assessed by an acetone test[10]. The acetone test was done on days 24, 38 and 52. Briefly, 250 μL of acetone (Wako Pure Chemical Ltd., Osaka, Japan) was sprayed onto the plantar skin of the right hind paw, and the time spent in elevation and licking of the stimulated hind paw for 60 seconds was measured. Acetone was applied twice at a 15-minute interval, and the average withdrawal response time was calculated. A hot plate test was performed for assessment of thermal hyperalgesia on days 25, 39 and 54. Rats were placed in a Hot/Cold Plate Analgesia Meter (MK-350HC; Muromachi Kikai Co., Ltd., Tokyo, Japan) that kept the temperature of the plate at 50 °C. A cut-off time of 45 seconds was set to prevent tissue damage. The latency of withdrawal response, such as licking and flinching of each hind paw, was recorded.

oxaliplatin-treated rats [2] = assay: hot plate test for heat hypoalgesia in oxaliplatin-treated rats; type: in vivo, rat
Description: as §1, §2

oxaliplatin-treated rats [3] = assay: rotarod test of motor coordination; type: in vivo, rat; conditions: 8 wks; among the tested groups
Description: as §1
(§3) A rotarod test was carried out on day 57 to evaluate if chronic treatment of oxaliplatin had any effect on motor coordination. Rats were placed on the rotarod (SN-497; Shinano-Seisakusho Ltd., Tokyo, Japan), which is a horizontal rod 10 cm diameter, with their heads directed against the direction of rotation at 5 rpm. The time that the animal stayed on the rod (up to maximum of 120 seconds) was recorded. A wire hang test was performed for assessment of neuromuscular strength on day 53. Animals were placed on the wire net that was held horizontally. The wire screen was first inclined at 90 ° for 20 seconds, then turned to 180 ° for a further 20 seconds. The latency to fall from the wire net inclined at the respective angles was recorded.

oxaliplatin-treated rats [4] = assay: wire hang test of neuromuscular strength; type: in vivo, rat; conditions: wire screen inclined to 90° or 180° for 20 seconds; among groups
Description: as §1, §3

rat sciatic nerve = assay: histological analysis of the sciatic nerve (electron microscopy, ratio of degenerated myelinated fibers); type: in vivo; conditions: oxaliplatin-treated group; 8 wks; n = 3
Description: as §1
The rats were deeply anesthetized with pentobarbital (50 mg/kg), and transcardially perfused with phosphate-buffered saline (pH 7.4), followed by 2.5% phosphate-buffered glutaraldehyde. The sciatic nerves were rapidly dissected, and the samples were kept overnight in the same fixative at 4 °C. The fixed fibers were post-fixed with 1% osmium tetroxide solution for 3 hours, dehydrated in a graded alcohol series, and embedded in Epon815. For light microscopy, semi-thin sections were cut from each block and stained with toluidine blue. The stained sections were observed using a light microscope (BX60, Olympus Corp., Tokyo, Japan). For electron microscopy, ultra-thin sections were cut and stained with uranyl acetate and lead citrate. […] The numbers of normal- and degenerated-myelinated nerve fibers were counted in the area of 0.05 mm^2 (0.01 mm^2 × 5 areas), and the ratio of degenerated nerve fibers was calculated as the percentage of total nerve fibers in each group. In this study, the pathological experts who investigate myelination or demyelination analyzed light and electron microscopy in detail.

oxaliplatin-treated rats [5] = assay: peripheral blood flow by two-dimensional laser speckle Blood Flow Imager; type: in vivo, rat; conditions: for peripheral blood flow, Head / peripheral blood flow, Left ear / peripheral blood flow, Left forelimb / peripheral blood flow, Left hindlimb / peripheral blood flow, Right ear / peripheral blood flow, Right forelimb / peripheral blood flow, Right hindlimb / peripheral blood flow, Tail: ratio to naïve rats
Description: as §1
Peripheral blood flow was measured using a two-dimensional laser speckle Blood Flow Imager (Omegazone OZ-2; Omegawave, Inc., Tokyo, Japan). Rats were anesthetized with isoflurane for induction and urethane intraperitoneally for maintenance. Body temperature was maintained at 37.5 ± 0.5 °C using a heating pad. Blood pressure and heart rate were concurrently measured by a tail-cuff apparatus (BP-98A-L; Softron, Tokyo, Japan). Peripheral blood flow in the head, ears, forelimbs, hindlimbs and tail of rats was measured at four defined time points (day 3, 10, 26 and 54). Values were analyzed by analysis software (LIA-V210, Softron). Real image and color-coded images were obtained in high-resolution mode (639 × 480 pixels; 2 images/second). The blood flow value in each peripheral site is expressed as mean blood flow in the region of interest (ROI). The ratio of blood flow rate of treated animals to naïve animals was calculated (%).

[6] = platinum concentration in dorsal root ganglia (ICP-MS); type: in vivo, rat; conditions: oxaliplatin 4 mg/kg i.p. twice a week; 4 and 8 wks
Description: Lumbar L4-L6 DRG were isolated from each group on days 26 and 54 after oxaliplatin treatment. The tissue samples were pretreated by heating in an acid solution, and the tissue platinum concentration was analyzed using an ICP-MS system (Agilent 7700s; Agilent Technologies, Inc., Santa Clara, CA, USA). The lower limit for quantification of platinum in tissue was 2.0 ng.

neuro2A cells = conditions: oxaliplatin 30–300 μM, 1 hour
Description: Mouse neuroblastoma Neuro2A cells (ATCC-CCL 131) were grown in Dulbecco’s MEM (Life Technologies) containing 10% fetal bovine serum with 100 units/mL penicillin and 100 mg/mL streptomycin (Life Technologies). The cells were maintained at 37 °C in a humidified atmosphere with 5% CO2 and 95% air. For measurement of ROS generation, the cells were seeded at 2.0 × 10^4 cells/well in poly-D-lysine-coated 96-well plates (BD Falcon, Franklin Lakes, NJ, USA). After plating, the cells were maintained in Dulbecco’s MEM (without phenol red or serum, Life Technologies) with 100 units/mL penicillin and 100 mg/mL streptomycin for more than 16 hours until subsequent experiments. Intracellular ROS generation caused by oxaliplatin in neuro2A cells was determined using CM-H2DCFDA. […] The cells were incubated for 30 minutes with 10 μM CM-H2DCFDA at 37 °C, followed by treatment of drugs for 1 hour. Fluorescence intensity was measured using a microplate reader (Infinite M200; Tecan Japan Co., Ltd., Kanagawa, Japan) at 485 nm (excitation) /520 nm (emission).

[7] = set-up: method as in PMID 11223836; conditions: rats, 5 mg/kg oxaliplatin intraperitoneally; cited from earlier work
[8] = day 3, L-OHP 4 mg/kg i.p. twice weekly
[9] = day 10, L-OHP 4 mg/kg i.p. twice weekly

## O=C1[O][Pt]2([NH][C@@H]3CCCC[C@H]3[NH]2)[O]C1=O [oxaliplatin]
oxaliplatin-treated rats [1]
  duration of withdrawal responses to cold stimulation by acetone: significantly increased
oxaliplatin-treated rats [2]; 4 wks after oxaliplatin treatment, among all groups
  latency of withdrawal to heat stimulation (hot plate): no significant difference
oxaliplatin-treated rats [2]; oxaliplatin vs naïve control, 6 wks (p < 0.05) and 8 wks (p < 0.01)
  latency of withdrawal to heat stimulation (hot plate): gradually increased
oxaliplatin-treated rats [3]
  motor coordination (rotarod test): no significant differences
oxaliplatin-treated rats [4]
  muscle strength (wire screen hanging test): no significant differences
Rat sciatic nerve
  ratio of degenerated axons in total myelinated nerve fibers: 8.8 ± 2.4%
oxaliplatin-treated rats [5]; 4 weeks, L-OHP + DW
  peripheral blood flow, Head: 89.9 ± 2.6 %
  peripheral blood flow, Left ear: 95.7 ± 2.9%
  peripheral blood flow, Left forelimb: 87.3 ± 2.8 %
  peripheral blood flow, Left hindlimb: 82.0 ± 4.5 %
  peripheral blood flow, Right ear: 91.2 ± 3.4%
  peripheral blood flow, Right forelimb: 89.0 ± 2.7 %
  peripheral blood flow, Right hindlimb: 88.3 ± 5.1%
  peripheral blood flow, Tail: 100.1 ± 2.2%
oxaliplatin-treated rats [5]; 8 weeks, L-OHP + DW
  peripheral blood flow, Head: 93.5 ± 3.8%
  peripheral blood flow, Left ear: 91.4 ± 3.2%
  peripheral blood flow, Left forelimb: 97.2 ± 1.5%
  peripheral blood flow, Left hindlimb: 95.7 ± 4.7%
  peripheral blood flow, Right ear: 92.3 ± 4.1%
  peripheral blood flow, Right forelimb: 100.3 ± 2.0%
  peripheral blood flow, Right hindlimb: 102.3 ± 4.4%
  peripheral blood flow, Tail: 96.3 ± 3.3%
oxaliplatin-treated rats [5]; [8]
  peripheral blood flow, Head: 108.3 ± 2.9%
  peripheral blood flow, Left ear: 104.8 ± 4.3%
  peripheral blood flow, Left forelimb: 97.5 ± 3.1%
  peripheral blood flow, Left hindlimb: 110.2 ± 0.9%
  peripheral blood flow, Right ear: 101.5 ± 5.6%
  peripheral blood flow, Right forelimb: 100.8 ± 1.9%
  peripheral blood flow, Right hindlimb: 114.2 ± 2.1%
  peripheral blood flow, Tail: 98.8 ± 2.5%
oxaliplatin-treated rats [5]; [9]
  peripheral blood flow, Head: 91.9 ± 4.5%
  peripheral blood flow, Left ear: 85.3 ± 2.2 %
  peripheral blood flow, Left forelimb: 93.1 ± 3.8%
  peripheral blood flow, Left hindlimb: 85.8 ± 5.0%
  peripheral blood flow, Right ear: 87.7 ± 2.0 %
  peripheral blood flow, Right forelimb: 91.4 ± 3.1%
  peripheral blood flow, Right hindlimb: 86.5 ± 6.9%
  peripheral blood flow, Tail: 90.9 ± 3.4%
oxaliplatin-treated rats [5]; oxaliplatin, 4 wks
  mean blood flow in the fore- and hindlimbs: significantly decreased
[6]
  platinum accumulation in the rat DRG: directly correlated with the duration of oxaliplatin treatment
neuro2A cells
  ROS generation in neuro2A cells: increased ROS generation
[7]
  time for which maximum plasma platinum was maintained: 2 h
  time to maximum plasma concentration of platinum: approximately 90 minutes
